{"source": "paper PMC2600787", "about": "“Flanking p10 contribution and sequence bias in matrix based epitope prediction: revisiting the assumption of independent binding pockets” (BMC Structural Biology, 2008)", "origin": "cited, not measured here"}
{"tested_on": "HLA-DR1", "parameters": "method as in 2 sources, ref Geluk et al. [32] ||| ref [32] = [32]; PMID 9753297; doi:10.2337/diabetes.47.10.1594; Geluk A van Meijgaarden KE Schloot NC Drijfhout JW Ottenhoff TH Roep BO HLA-DR binding analysis of peptides from islet antigens in IDDM Diabetes 1998 47 1594 1601 9753297 10.2337/diabetes.47.10.1594; pIC50exp: unit not given here", "conditions": "according to IC50 binding measurements; ref [32]", "from_the_text": "(§1) Anchor residues at dominant pockets p1, p4, p6 and p9 are as expected for DR1 [12]."}
{"substance": "SCSKVDVNYAFLHATDLLPA [peptide 9, 20-mer peptide from GAD65]", "binding to DR1 (in words)": "strong binder"}
{"tested_on": "HLA-DR1", "parameters": "method as in 2 sources, ref Geluk et al. [32] ||| ref [32] = [32]; PMID 9753297; doi:10.2337/diabetes.47.10.1594; Geluk A van Meijgaarden KE Schloot NC Drijfhout JW Ottenhoff TH Roep BO HLA-DR binding analysis of peptides from islet antigens in IDDM Diabetes 1998 47 1594 1601 9753297 10.2337/diabetes.47.10.1594; pIC50exp: unit not given here", "conditions": "experimental binding affinity to HLA-DR1; logarithmic transform of IC50; 20-mer peptides from GAD65 (1 through 100) and ICA69 (101 and above), pruned to remove poor binders; ref Geluk et al. [32]", "from_the_text": "as §1"}
{"substance": "YVVKSFDRSTKVIDFHYPNE [peptide 13, 20-mer peptide from GAD65]", "pIC50exp": -0.77}
{"substance": "MASPGSGFWSFGSEDGSGDS [peptide 1, 20-mer peptide from GAD65]", "pIC50exp": -0.70}
{"substance": "LVSATAGTTVYGAFDPLLAV [peptide 33, 20-mer peptide from GAD65]", "pIC50exp": 0.05}
{"substance": "LQDVMNILLQYVVKSFDRST [peptide 12, 20-mer peptide from GAD65]", "pIC50exp": -0.60}
{"substance": "RKESSSFKTEDGKSILSALD [peptide 132, 20-mer peptide from ICA69]", "pIC50exp": 0.52}
{"substance": "FRKVQTQVRLAKKNFDKLKM [peptide 120, 20-mer peptide from ICA69]", "pIC50exp": 0.00}
{"substance": "AIHESFKGYQPYEFTTLKSL [peptide 126, 20-mer peptide from ICA69]", "pIC50exp": 0.10}
{"substance": "QCRTEYRGALLWMKDVSQEL [peptide 117, 20-mer peptide from ICA69]", "pIC50exp": 1.10}
{"substance": "SVVNKMQQRYWETKQAFIKA [peptide 103, 20-mer peptide from ICA69]", "pIC50exp": 1.00}
{"substance": "DPDLYKQMEKFRKVQTQVRL [peptide 119, 20-mer peptide from ICA69]", "pIC50exp": 0.22}
{"substance": "115: 20-mer peptide from ICA69 (VETFRHRAISDTWLTVNRME) [compound 115]", "pIC50exp": 1.10}
{"substance": "SCSKVDVNYAFLHATDLLPA [peptide 9, 20-mer peptide from GAD65]", "pIC50exp": 1.52}
{"target": "HLA-DRB3*0101 (HLA-DR52a) (Homo sapiens, UniProt P01903+P79483)", "conditions": "earlier structural and binding studies; crystallography CSP, unpublished; ref not given", "from_the_text": "Results from structural and binding studies using the peptide […] in complex with HLA-DRB3*0101 (HLA-DR52a) show a contribution from position p10. 24-[…]-39, from the N-terminus of human […] is a major ligand of DR52a. A natural variant of the epitope widely distributed in the population is 24-[…]-39. The Leu33/Pro33 dimorphism is the basis of the unidirectional alloimmune posttransfusion thrombocytopenia purpura (PTP) and fetal-maternal alloimmune thrombocytopenia (FMAIT), severe blood disorders in some DR52a subjects homozygous in Pro33 [[2 ..."}
{"substance": "AWCSDEALPLGSPRCD [peptide from the N-terminus of human integrin α2βIIIa, a major ligand of DR52a]", "binding to DR52a (in words)": "major ligand"}
{"substance": "AWCSDEALPPGS [shorter Pro33 integrin peptide]", "binding to DR52a (in words)": "does not bind"}
{"substance": "AWCSDEALPPLS [Pro33 integrin peptide with leucine replacing glycine at position 10]", "binding to DR52a (in words)": "has been demonstrated to bind"}
{"substance": "AWCSDEALPPGSPRCD", "binding to DR52a (in words)": "does not bind"}
